{
  "source": "ChEMBL document CHEMBL1201862",
  "about": "“PubChem BioAssay data set” (2004)",
  "key": {"[1]": {"biological_target": "T1, Sphingosine 1-phosphate receptor 4 (Homo sapiens, UniProt O95977)", "T1 sequence (O95977 whole entry)": "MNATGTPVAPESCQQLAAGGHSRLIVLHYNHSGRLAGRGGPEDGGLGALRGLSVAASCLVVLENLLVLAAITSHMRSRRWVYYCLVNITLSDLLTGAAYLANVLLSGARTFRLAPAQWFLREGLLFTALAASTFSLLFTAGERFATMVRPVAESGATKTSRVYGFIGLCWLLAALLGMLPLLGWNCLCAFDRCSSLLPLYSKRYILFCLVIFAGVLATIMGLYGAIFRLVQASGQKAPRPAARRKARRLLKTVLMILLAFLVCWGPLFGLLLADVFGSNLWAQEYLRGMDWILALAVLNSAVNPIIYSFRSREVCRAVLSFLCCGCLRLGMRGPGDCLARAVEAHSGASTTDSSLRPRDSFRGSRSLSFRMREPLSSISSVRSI", "experiment": "Fluorescence dose response cell-based high throughput screening assay for antagonists of the Sphingosine 1-Phosphate Receptor 4 (S1P4). [Related pubchem assays: 1524 (Confirmation in triplicates.), 1510 (Primary screen.)]", "format": "functional"}, "[2]": {"biological_target": "Beta Lactamase (Pseudomonas aeruginosa, UniProt Q932Y6)", "sequence (Q932Y6 whole entry)": "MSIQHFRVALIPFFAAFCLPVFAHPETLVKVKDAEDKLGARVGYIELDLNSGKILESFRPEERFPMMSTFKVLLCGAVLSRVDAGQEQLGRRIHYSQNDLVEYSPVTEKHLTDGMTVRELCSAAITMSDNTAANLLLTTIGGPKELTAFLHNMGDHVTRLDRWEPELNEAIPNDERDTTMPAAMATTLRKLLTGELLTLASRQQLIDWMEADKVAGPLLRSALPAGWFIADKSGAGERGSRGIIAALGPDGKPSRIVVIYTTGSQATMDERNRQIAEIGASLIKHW", "experiment": "BLA reporter interference, concentration series – BLA reporter cells, FRET fluorescence, artefact control for NOD2-RIPK2 interaction inhibitor project, dose response (AID 651552)", "format": "functional, cell-based"}, "[3]": {"biological_target": "T2, Hexokinase-1 (Homo sapiens, UniProt P19367)", "T2 sequence (P19367 whole entry)": "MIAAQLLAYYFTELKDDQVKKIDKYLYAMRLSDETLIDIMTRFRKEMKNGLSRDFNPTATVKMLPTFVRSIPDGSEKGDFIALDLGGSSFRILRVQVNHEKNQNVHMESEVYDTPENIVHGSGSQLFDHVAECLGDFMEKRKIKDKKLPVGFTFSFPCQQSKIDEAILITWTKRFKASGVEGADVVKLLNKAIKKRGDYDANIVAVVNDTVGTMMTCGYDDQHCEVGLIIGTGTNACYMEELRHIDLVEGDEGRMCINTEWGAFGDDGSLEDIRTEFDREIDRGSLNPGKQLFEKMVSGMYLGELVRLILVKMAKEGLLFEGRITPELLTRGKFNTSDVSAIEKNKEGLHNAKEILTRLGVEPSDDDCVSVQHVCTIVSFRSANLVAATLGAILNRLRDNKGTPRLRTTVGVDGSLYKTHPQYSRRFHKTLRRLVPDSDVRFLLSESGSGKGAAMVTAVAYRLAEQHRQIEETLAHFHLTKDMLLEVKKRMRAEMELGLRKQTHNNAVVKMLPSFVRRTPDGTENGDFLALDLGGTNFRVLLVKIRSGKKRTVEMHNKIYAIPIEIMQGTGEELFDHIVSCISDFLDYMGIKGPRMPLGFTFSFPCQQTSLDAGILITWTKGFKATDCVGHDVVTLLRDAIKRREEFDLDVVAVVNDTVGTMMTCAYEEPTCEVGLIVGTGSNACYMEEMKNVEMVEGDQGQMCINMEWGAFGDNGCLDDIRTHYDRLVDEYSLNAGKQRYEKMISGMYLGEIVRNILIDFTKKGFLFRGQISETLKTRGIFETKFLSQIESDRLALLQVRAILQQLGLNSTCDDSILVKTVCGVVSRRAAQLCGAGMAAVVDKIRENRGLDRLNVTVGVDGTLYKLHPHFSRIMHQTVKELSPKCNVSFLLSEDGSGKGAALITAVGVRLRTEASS", "experiment": "HK1 enzyme activation by HKDC1 hits – biochemical, selectivity assay for HKDC1 activator project, dose response (AID 504762)", "format": "functional"}, "[4]": {"biological_target": "T3, Bcl-2-related protein A1 (Mus musculus, UniProt Q07440)", "T3 sequence (Q07440 whole entry)": "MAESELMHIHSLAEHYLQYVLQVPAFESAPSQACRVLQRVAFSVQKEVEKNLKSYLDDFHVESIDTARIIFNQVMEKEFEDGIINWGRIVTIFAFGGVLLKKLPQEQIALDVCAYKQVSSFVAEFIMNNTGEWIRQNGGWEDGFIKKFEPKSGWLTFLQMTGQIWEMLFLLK", "experiment": "displacement of Bid BH3 peptide from Bfl-1 – biochemical, fluorescence polarization, FITC-Bid, mouse, primary screen (AID 432)"}, "[5]": {"biological_target": "T4, Zinc finger protein mex-5 (Caenorhabditis elegans, UniProt Q9XUB2)", "T4 sequence (Q9XUB2 whole entry)": "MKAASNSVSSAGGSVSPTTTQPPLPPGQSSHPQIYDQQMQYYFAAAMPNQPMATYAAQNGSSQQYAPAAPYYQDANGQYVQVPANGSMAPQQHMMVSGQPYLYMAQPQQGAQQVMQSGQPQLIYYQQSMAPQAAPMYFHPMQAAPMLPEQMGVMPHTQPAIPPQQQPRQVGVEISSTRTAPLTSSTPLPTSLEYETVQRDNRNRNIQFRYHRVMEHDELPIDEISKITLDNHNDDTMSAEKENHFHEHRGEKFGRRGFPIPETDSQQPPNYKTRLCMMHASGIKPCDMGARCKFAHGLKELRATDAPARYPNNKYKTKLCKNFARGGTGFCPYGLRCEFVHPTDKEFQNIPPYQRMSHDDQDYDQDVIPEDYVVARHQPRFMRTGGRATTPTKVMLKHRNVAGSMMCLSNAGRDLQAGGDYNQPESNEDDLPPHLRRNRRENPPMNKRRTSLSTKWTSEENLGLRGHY", "experiment": "potency of MEX-5 RNA-binding blockers – biochemical, C. elegans, fluorescence polarization, dose response (AID 1960)"}, "[6]": {"biological_target": "T5, Tyrosyl-DNA phosphodiesterase 2 (Homo sapiens, UniProt O95551)", "T5 sequence (O95551 whole entry)": "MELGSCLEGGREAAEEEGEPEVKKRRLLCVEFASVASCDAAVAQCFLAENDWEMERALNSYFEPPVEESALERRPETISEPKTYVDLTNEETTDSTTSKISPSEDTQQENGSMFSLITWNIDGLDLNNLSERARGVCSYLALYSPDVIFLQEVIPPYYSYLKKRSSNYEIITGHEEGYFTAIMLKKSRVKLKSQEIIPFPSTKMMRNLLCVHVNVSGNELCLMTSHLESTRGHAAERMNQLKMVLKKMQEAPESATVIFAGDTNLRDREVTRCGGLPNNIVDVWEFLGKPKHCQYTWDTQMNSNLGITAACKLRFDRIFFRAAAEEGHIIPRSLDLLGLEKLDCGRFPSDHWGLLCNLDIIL", "experiment": "potency against TDP2 phosphodiesterase activity – biochemical, epi absorbance, IC50, dose response (AID 743297)"}, "[7]": {"experiment": "off-target signal loss in HeLa-CEM21 co-culture – HeLa F-luc CTL cells, cherry-picked, counter-screen for HIV-1 Env fusion inhibitor project, dose response (AID 652040);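 note: potency for signal decrease marking cytotoxic or nonspecific inhibition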", "format": "functional, cell-based"}, "[8]": {"biological_target": "Mitogen-activated protein kinase kinase kinase kinase 2 (Homo sapiens, UniProt Q12851)", "sequence (Q12851 whole entry)": "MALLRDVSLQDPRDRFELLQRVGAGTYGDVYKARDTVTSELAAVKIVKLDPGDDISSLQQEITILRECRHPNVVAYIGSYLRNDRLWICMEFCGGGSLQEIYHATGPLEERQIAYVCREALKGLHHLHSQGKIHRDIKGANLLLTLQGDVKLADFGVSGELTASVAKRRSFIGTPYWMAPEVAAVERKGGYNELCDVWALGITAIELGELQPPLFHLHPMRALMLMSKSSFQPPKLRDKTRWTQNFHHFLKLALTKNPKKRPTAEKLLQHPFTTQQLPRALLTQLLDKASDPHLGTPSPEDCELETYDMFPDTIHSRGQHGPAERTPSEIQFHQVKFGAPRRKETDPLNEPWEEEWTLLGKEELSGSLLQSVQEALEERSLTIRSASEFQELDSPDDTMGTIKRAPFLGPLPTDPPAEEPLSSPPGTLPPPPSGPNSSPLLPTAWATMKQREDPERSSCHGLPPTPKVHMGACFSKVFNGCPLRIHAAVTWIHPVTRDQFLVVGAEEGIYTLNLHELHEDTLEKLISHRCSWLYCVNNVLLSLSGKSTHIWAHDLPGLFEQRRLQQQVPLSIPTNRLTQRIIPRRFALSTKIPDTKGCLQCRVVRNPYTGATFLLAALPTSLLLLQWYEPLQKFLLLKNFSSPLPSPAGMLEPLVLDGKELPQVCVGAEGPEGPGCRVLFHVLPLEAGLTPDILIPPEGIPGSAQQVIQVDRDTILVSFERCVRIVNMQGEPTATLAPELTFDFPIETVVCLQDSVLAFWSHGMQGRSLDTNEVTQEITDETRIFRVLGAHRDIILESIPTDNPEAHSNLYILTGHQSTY", "format": "functional"}, "[9]": {"biological_target": "Mitogen-activated protein kinase 10 (Homo sapiens, UniProt P53779)", "sequence (P53779 whole entry)": "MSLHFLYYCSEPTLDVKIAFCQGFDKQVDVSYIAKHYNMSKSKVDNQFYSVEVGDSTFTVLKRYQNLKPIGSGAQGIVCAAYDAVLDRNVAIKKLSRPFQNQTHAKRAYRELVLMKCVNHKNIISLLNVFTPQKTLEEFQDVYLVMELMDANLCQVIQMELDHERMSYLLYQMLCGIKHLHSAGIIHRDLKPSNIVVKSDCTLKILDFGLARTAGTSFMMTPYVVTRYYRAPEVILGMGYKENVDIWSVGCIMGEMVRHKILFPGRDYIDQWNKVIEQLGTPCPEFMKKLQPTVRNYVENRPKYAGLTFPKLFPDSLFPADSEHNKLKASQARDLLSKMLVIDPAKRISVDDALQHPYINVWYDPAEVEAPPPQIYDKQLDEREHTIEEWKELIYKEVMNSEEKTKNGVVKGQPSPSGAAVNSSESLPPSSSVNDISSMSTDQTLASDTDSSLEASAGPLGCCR", "experiment": "Navigating the Kinome. Panel member name: MAPK10", "format": "functional"}, "[10]": {"biological_target": "Ribosomal protein S6 kinase alpha-5 (Homo sapiens, UniProt O75582)", "sequence (O75582 whole entry)": "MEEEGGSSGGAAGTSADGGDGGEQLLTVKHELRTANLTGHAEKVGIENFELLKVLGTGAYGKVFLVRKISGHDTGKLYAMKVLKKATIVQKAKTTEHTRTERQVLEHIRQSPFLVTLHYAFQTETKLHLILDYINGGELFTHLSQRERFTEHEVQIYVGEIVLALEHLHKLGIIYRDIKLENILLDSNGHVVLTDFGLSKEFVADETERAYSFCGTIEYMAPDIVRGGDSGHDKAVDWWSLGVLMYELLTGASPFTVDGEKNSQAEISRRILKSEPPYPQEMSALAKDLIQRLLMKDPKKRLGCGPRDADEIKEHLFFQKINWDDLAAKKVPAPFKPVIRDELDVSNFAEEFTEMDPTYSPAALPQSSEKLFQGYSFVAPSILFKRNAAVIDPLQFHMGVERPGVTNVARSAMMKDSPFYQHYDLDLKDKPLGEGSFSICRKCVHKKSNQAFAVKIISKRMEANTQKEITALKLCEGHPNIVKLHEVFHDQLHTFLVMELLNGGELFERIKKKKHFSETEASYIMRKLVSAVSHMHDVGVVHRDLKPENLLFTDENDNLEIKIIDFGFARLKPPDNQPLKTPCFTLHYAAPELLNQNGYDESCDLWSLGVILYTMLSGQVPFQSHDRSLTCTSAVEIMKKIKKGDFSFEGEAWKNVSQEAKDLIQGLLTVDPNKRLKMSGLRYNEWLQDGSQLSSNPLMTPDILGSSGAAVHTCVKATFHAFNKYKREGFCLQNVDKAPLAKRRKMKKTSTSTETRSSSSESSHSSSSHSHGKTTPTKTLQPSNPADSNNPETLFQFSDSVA", "format": "functional"}, "[11]": {"biological_target": "Casein kinase I isoform delta (Homo sapiens, UniProt P48730)", "sequence (P48730 whole entry, canonical isoform)": "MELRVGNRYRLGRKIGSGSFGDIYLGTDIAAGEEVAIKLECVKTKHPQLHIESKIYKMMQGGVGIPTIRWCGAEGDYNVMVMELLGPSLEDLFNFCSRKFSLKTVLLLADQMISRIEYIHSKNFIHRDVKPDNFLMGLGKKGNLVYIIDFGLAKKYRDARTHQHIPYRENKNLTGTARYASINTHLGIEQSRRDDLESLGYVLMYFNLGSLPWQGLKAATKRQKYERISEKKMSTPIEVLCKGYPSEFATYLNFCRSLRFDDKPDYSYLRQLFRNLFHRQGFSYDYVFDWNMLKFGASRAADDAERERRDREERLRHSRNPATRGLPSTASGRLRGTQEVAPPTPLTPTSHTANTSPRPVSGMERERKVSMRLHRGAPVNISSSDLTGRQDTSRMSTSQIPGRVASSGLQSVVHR", "format": "functional"}},
  "note": "Active and inactive are the calls of the source.",
  "data": [
    {"smiles": "COC(=O)CCS(=O)(=O)c1nc(-c2ccccc2)cc(C(F)(F)F)n1", "values": [
      {"measurement": "IC50", "setting": "[1]", "result": "1.34 µM (active)"},
      {"measurement": "IC50", "setting": "[2]", "result": "16.4 µM (inactive)"}
    ]},
    {"smiles": "O=C(O)c1ccc(NC2=C(Cl)C(=O)c3ccccc3C2=O)cc1", "values": [
      {"measurement": "EC50", "setting": "[3]", "result": "10.6 µM (active)"}
    ]},
    {"smiles": "O=C(O)c1ccc2c3c(ncnc13)-c1ccccc1C2=O", "values": [
      {"measurement": "IC50", "setting": "[4]", "result": "> 100 µM (not active)"},
      {"measurement": "EC50", "setting": "[5]", "result": "31.9 µM (active)"}
    ]},
    {"smiles": "CCOC(=O)c1c2c(n(Cc3ccccc3)c1C)C(=O)C(=O)c1ccccc1-2", "values": [
      {"measurement": "IC50", "setting": "[6]", "result": "4.78 µM (active)"},
      {"measurement": "AC50", "setting": "[7]", "result": "6.77 µM (active)"}
    ]},
    {"smiles": "Cc1ccc2nccc(NC(=O)Nc3cccc(C(F)(F)F)n3)c2c1", "values": [
      {"measurement": "Ki", "setting": "[8]", "result": "> 6.31 µM (inactive)"},
      {"measurement": "Ki", "setting": "[9]", "result": "> 3.16 µM (inactive)"}
    ]},
    {"smiles": "COc1cc2c(cc1F)C(c1ccccc1Cl)=Nc1c(n[nH]c1C)N2", "note": "[RG-1530]", "values": [
      {"measurement": "Ki", "setting": "[10]", "result": "> 2 µM (inactive)"},
      {"measurement": "Ki", "setting": "[11]", "result": "> 7.94 µM (inactive)"}
    ]}
  ]
}
